Measured values as given in ChEMBL document CHEMBL1121908, “Membrane effects of antiinflammatory agents. 1. Interaction of sulindac and its metabolites with phospholipid membrane, a magnetic resonance study” (J Med Chem, 1981).

How the values were obtained:
Type in all cases: subcellular
Liposome [1] = assay: The compound was evaluated for percent incorporation in DOPC vesicles, when compound to lipid mol ratio is 0.1
Liposome [2] = assay: The compound was evaluated for percent incorporation in DOPC vesicles, when compound to lipid mol ratio is 2
Liposome [3] = assay: The compound was evaluated for percent incorporation in DOPC vesicles, when compound to lipid mol ratio is 3.5

SMILES | Incorporation (Liposome [1]) [%] | Incorporation (Liposome [2]) [%] | Incorporation (Liposome [3]) [%]
CSc1ccc(/C=C2/C(C)=C(CC(=O)O)c3cc(F)ccc32)cc1 | 74 | 41 | 25
CC1=C(CC(=O)O)c2cc(F)ccc2/C1=C\c1ccc([S+](C)[O-])cc1 (stereo not given) | 7 | 5 | –
